Measured values from US20050176727A1, “Oximes and hydrazones that are useful in treating sexual dysfunction” (priority 2004, published 2005).
Structures can show the parent of a compound that is named as a salt.

Assays:
[1] = test system: penile erection in Wistar rats; experiment: Rat penile erection model; assay type: in vivo; settings: reference compound
Protocol: Wistar rats were used as a primary animal model to study penile erection in vivo. All experiments were carried out between 9:00 AM and 3:00 PM in a diffusely illuminated testing room with a red light. Animals (n=8-30) were weighed and allowed to adapt to the testing room for 60 minutes before the beginning of experiments. Rats were placed individually in a transparent cage (20×30×30 cm) after drug injection.

Row | Compound | melting point | most efficacious dose [1]
1 | N#CCON=C(CCN1CCN(c2ccccn2)CC1)c1ccccc1 (as salt: maleate) [Example 29, ({[1-phenyl-3-(4-pyridin-2-ylpiperazin-1-yl)propylidene]amino}oxy)acetonitrile] | 127 to 128 °C | –
2 | CCCCON=C(CCN1CCN(c2ccccn2)CC1)c1ccccc1 (as salt: maleate) [Example 30, 1-phenyl-3-(4-pyridin-2-ylpiperazin-1-yl)propan-1-one O-butyloxime] | 154 to 155 °C | –
3 | CC(C)O/N=C(\CCN1CCN(c2ccccn2)CC1)c1ccccc1 (as salt: maleate) [Example 31, (1E)-1-phenyl-3-(4-pyridin-2-ylpiperazin-1-yl)propan-1-one O-isopropyloxime] | 156 to 157 °C | –
4 | CON=C(c1ccc(Cl)cc1)C(C)CN1CCN(c2ccccn2)CC1 (stereo not shown) (as salt: maleate) [Example 39, 1-(4-chlorophenyl)-2-methyl-3-(4-pyridin-2-ylpiperazin-1-yl)propan-1-one O-methyloxime] | 152 to 153 °C | –
5 | ON=C(CCN1CCN(c2ccccn2)CC1)c1ccc(F)cc1 [Example 21, 1-(4-fluorophenyl)-3-(4-pyridin-2-ylpiperazin-1-yl)propan-1-one oxime] | 159 to 160 °C | –
6 | O/N=C(\CCN1CCN(c2ccccn2)CC1)c1ccc(Cl)cc1 [Example 22, (1E)-1-(4-chlorophenyl)-3-(4-pyridin-2-ylpiperazin-1-yl)propan-1-one oxime] | 188 to 190 °C | –
7 | CN1CCc2cccc3c2[C@H]1Cc1ccc(O)c(O)c1-3 [apomorphine, (6aR) 5,6,6a,7-tetrahydro-6-methyl-4H-dibenzo[de,g]quinoline-10,11-diol] | – | 0.1 µmol/kg
